Measured values taken from publication PMC8764865, “Activity-based protein profiling reveals dynamic substrate-specific cellulase secretion by saprotrophic basidiomycetes” (Biotechnology for Biofuels and Bioproducts, 2022).

Assays:
Type in all cases: biochemical
LsGH10A [1] = molecular target: T1, LsGH10A (Trametes sp., UniProt Z9JQD7XB80); assay: continuous fluorogenic inhibition kinetics (4-methylumbelliferyl glycoside); settings: non-covalent; no covalent inhibition discernible after 1 h; 50 mM NaOAc pH 4.0 final; inhibition assay, printed only as affinity
T1 construct: native signal peptide removed (alpha-factor secretion signal), C-terminal 6xHis, codon-optimised, Pichia pastoris X-33; later-eluting Superdex 200 peak

LsGH5_5A = molecular target: T2, LsGH5_5A (Trametes sp., UniProt Z9YXY2URI3); assay: continuous fluorogenic inhibition kinetics, 4MU-GG substrate; settings: covalent, time-dependent; up to 50 uM inhibitor; 0.4 mM substrate stock mixed 1:1; NaOAc pH 4.0
T2 construct: native signal peptide removed (alpha-factor secretion signal), C-terminal 6xHis (intact), codon-optimised, Pichia pastoris X-33
T2 sequence (Z9YXY2URI3 1-398): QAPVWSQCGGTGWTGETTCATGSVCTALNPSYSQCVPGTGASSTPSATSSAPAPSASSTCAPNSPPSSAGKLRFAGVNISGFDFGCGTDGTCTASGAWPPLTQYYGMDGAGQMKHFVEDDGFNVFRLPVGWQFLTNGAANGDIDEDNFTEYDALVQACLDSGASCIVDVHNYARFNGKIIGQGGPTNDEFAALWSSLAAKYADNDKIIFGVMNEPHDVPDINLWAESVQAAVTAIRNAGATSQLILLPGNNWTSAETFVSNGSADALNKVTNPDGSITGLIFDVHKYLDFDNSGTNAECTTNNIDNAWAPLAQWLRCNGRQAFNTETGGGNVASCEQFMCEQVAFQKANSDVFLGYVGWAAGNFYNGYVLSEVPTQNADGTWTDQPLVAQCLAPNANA

LsGH10A [2] = molecular target: T1, LsGH10A; assay: as above; settings: covalent, time-dependent; up to 50 uM inhibitor; 0.4 mM substrate stock mixed 1:1; NaOAc pH 4.0
TlGH12A = molecular target: T3, TlGH12A (Pilatotrama ljubarskyi, UniProt Z9OT85M9A7); assay: as above; settings: covalent, time-dependent; up to 50 uM inhibitor; 0.4 mM substrate stock mixed 1:1; NaOAc pH 4.0
T3 construct: native signal peptide removed (alpha-factor secretion signal), C-terminal 6xHis, codon-optimised, Pichia pastoris X-33
T3 sequence (Z9OT85M9A7 1-225): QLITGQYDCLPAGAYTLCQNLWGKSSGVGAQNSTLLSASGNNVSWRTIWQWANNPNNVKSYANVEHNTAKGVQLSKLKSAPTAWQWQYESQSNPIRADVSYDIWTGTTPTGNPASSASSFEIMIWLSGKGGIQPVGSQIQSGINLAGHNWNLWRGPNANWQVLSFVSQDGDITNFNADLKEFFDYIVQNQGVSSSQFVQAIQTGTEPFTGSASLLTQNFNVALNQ

| SMILES | Ki (LsGH10A [1]) | ki/KI (LsGH5_5A) | ki/KI (LsGH10A [2]) | ki/KI (TlGH12A) |
| --- | --- | --- | --- | --- |
| O=C(CCCC[C@@H]1SC[C@@H]2NC(=O)N[C@@H]21)NCCCCCCCCN1[C@H]2[C@H](O)[C@@H](O)[C@H](O[C@@H]3OC[C@@H](O)[C@H](O)[C@H]3O)C[C@H]21 (stereo partly shown) [Biotin-ABP-Xyn] | 21 nM |  |  |  |
| OC[C@H]1[C@H]2O[C@H]2[C@H](O)[C@@H](O)[C@@H]1O[C@@H]1O[C@H](CO)[C@@H](O)[C@H](O)[C@H]1O [GGcyc] |  | clear time-dependent inhibition of LsGH5_5A, TlGH12A, and LsGH10A by GGcyc | clear time-dependent inhibition of LsGH5_5A, TlGH12A, and LsGH10A by GGcyc | clear time-dependent inhibition of LsGH5_5A, TlGH12A, and LsGH10A by GGcyc |
